Results as given in PubChem BioAssay (NCI).
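Protocol summary: plate cells (96-well), add compound at 5 concentrations, incubate 48 h, interpolate endpoints linearly. GI50: concentration for 50% inhibition of growth. TGI denotes the concentration required for complete inhibition of growth.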

Experiments:
Experiment in all cases: NCI tumour cell line growth inhibition, 48 h
786-0 renal = test system: 786-0 renal
A498 renal = test system: A498 renal
ACHN renal = test system: ACHN renal
BT-549 breast = test system: BT-549 breast
CAKI-1 renal = test system: CAKI-1 renal
COLO 205 colon = test system: COLO 205 colon
DU-145 prostate = test system: DU-145 prostate
EKVX NSCLC = test system: EKVX NSCLC
HCC-2998 colon = test system: HCC-2998 colon
HCT-116 colon = test system: HCT-116 colon
HCT-15 colon = test system: HCT-15 colon
HL-60(TB) leukemia = test system: HL-60(TB) leukemia
HOP-62 NSCLC = test system: HOP-62 NSCLC
HOP-92 NSCLC = test system: HOP-92 NSCLC
HS 578T breast = test system: HS 578T breast
HT29 colon = test system: HT29 colon
IGROV1 ovarian = test system: IGROV1 ovarian
K-562 leukemia = test system: K-562 leukemia
KM12 colon = test system: KM12 colon
LOX IMVI melanoma = test system: LOX IMVI melanoma
MALME-3M melanoma = test system: MALME-3M melanoma
MCF7 breast = test system: MCF7 breast
MDA-MB-231 breast = test system: MDA-MB-231 breast
MDA-MB-435 = test system: MDA-MB-435
MDA-N = test system: MDA-N
MOLT-4 leukemia = test system: MOLT-4 leukemia
NCI-H23 lung = test system: NCI-H23 lung
NCI-H460 lung = test system: NCI-H460 lung
NCI-H522 lung = test system: NCI-H522 lung
NCI/ADR-RES ovarian = test system: NCI/ADR-RES ovarian
OVCAR-3 ovarian = test system: OVCAR-3 ovarian
OVCAR-4 ovarian = test system: OVCAR-4 ovarian
OVCAR-5 ovarian = test system: OVCAR-5 ovarian
OVCAR-8 ovarian = test system: OVCAR-8 ovarian
PC-3 prostate = test system: PC-3 prostate
RPMI-8226 leukemia = test system: RPMI-8226 leukemia
RXF 393 renal = test system: RXF 393 renal
SF-268 CNS = test system: SF-268 CNS
SF-295 CNS = test system: SF-295 CNS
SK-MEL-2 melanoma = test system: SK-MEL-2 melanoma
SK-MEL-28 melanoma = test system: SK-MEL-28 melanoma
SK-MEL-5 melanoma = test system: SK-MEL-5 melanoma
SK-OV-3 ovarian = test system: SK-OV-3 ovarian
SN12C renal = test system: SN12C renal
SNB-75 CNS = test system: SNB-75 CNS
SW-620 colon = test system: SW-620 colon
T-47D breast = test system: T-47D breast
TK-10 renal = test system: TK-10 renal
U251 CNS = test system: U251 CNS
UACC-257 melanoma = test system: UACC-257 melanoma
UACC-62 melanoma = test system: UACC-62 melanoma
A549 NSCLC = test system: A549 NSCLC
CCRF-CEM leukemia = test system: CCRF-CEM leukemia
M14 melanoma = test system: M14 melanoma
NCI-H226 lung = test system: NCI-H226 lung
SF-539 CNS = test system: SF-539 CNS
SNB-19 CNS = test system: SNB-19 CNS
UO-31 renal = test system: UO-31 renal

OC1CCCN(C2(c3cccs3)CCCCC2)C1 (centres undefined)
TGI (786-0 renal): > 100 µM
TGI (A498 renal): > 100 µM
TGI (ACHN renal): > 100 µM
TGI (BT-549 breast): > 100 µM
TGI (CAKI-1 renal): > 100 µM
TGI (COLO 205 colon): > 100 µM
TGI (DU-145 prostate): > 100 µM
TGI (EKVX NSCLC): > 100 µM
TGI (HCC-2998 colon): > 100 µM
TGI (HCT-116 colon): > 100 µM
TGI (HCT-15 colon): > 100 µM
TGI (HL-60(TB) leukemia): > 100 µM
TGI (HOP-62 NSCLC): > 100 µM
TGI (HOP-92 NSCLC): > 100 µM
TGI (HS 578T breast): > 100 µM
TGI (HT29 colon): > 100 µM
TGI (IGROV1 ovarian): > 100 µM
TGI (K-562 leukemia): > 100 µM
TGI (KM12 colon): > 100 µM
TGI (LOX IMVI melanoma): > 100 µM
TGI (MALME-3M melanoma): > 100 µM
TGI (MCF7 breast): > 100 µM
TGI (MDA-MB-231 breast): > 100 µM
TGI (MDA-MB-435): > 100 µM
TGI (MDA-N): > 100 µM
TGI (MOLT-4 leukemia): > 100 µM
TGI (NCI-H23 lung): > 100 µM
TGI (NCI-H460 lung): > 100 µM
TGI (NCI-H522 lung): > 100 µM
TGI (NCI/ADR-RES ovarian): > 100 µM
TGI (OVCAR-3 ovarian): > 100 µM
TGI (OVCAR-4 ovarian): > 100 µM
TGI (OVCAR-5 ovarian): > 100 µM
TGI (OVCAR-8 ovarian): > 100 µM
TGI (PC-3 prostate): > 100 µM
TGI (RPMI-8226 leukemia): > 100 µM
TGI (RXF 393 renal): > 100 µM
TGI (SF-268 CNS): > 100 µM
TGI (SF-295 CNS): > 100 µM
TGI (SK-MEL-2 melanoma): > 100 µM
TGI (SK-MEL-28 melanoma): > 100 µM
TGI (SK-MEL-5 melanoma): > 100 µM
TGI (SK-OV-3 ovarian): > 100 µM
TGI (SN12C renal): > 100 µM
TGI (SNB-75 CNS): > 100 µM
TGI (SW-620 colon): > 100 µM
TGI (T-47D breast): > 100 µM
TGI (TK-10 renal): > 100 µM
TGI (U251 CNS): > 100 µM
TGI (UACC-257 melanoma): > 100 µM
TGI (UACC-62 melanoma): > 100 µM

O=c1cc(-c2ccc3ccccc3c2)[nH]c2ncc(Cl)cc12
TGI (786-0 renal): 16.8 µM
TGI (A498 renal): 43.1 µM
TGI (A549 NSCLC): > 100 µM
TGI (ACHN renal): > 100 µM
TGI (BT-549 breast): > 100 µM
GI50 (CAKI-1 renal): 7.58 µM
TGI (CAKI-1 renal): > 100 µM
TGI (CCRF-CEM leukemia): 56.8 µM
TGI (COLO 205 colon): 21.8 µM
TGI (DU-145 prostate): > 100 µM
TGI (EKVX NSCLC): > 100 µM
TGI (HCC-2998 colon): > 100 µM
GI50 (HCT-116 colon): 3.98 µM
TGI (HCT-116 colon): > 100 µM
TGI (HCT-15 colon): > 100 µM
GI50 (HL-60(TB) leukemia): 1.78 µM
TGI (HL-60(TB) leukemia): 3.96 µM
TGI (HOP-62 NSCLC): 29.6 µM
TGI (HOP-92 NSCLC): 38.1 µM
TGI (HS 578T breast): 70.8 µM
TGI (HT29 colon): > 100 µM
TGI (IGROV1 ovarian): > 100 µM
TGI (K-562 leukemia): > 100 µM
TGI (KM12 colon): > 100 µM
TGI (LOX IMVI melanoma): > 100 µM
TGI (M14 melanoma): > 100 µM
TGI (MALME-3M melanoma): 44.1 µM
TGI (MCF7 breast): > 100 µM
TGI (MDA-MB-231 breast): 56.2 µM
GI50 (MDA-MB-435): 0.846 µM
TGI (MDA-MB-435): 2.76 µM
GI50 (MDA-N): 1.55 µM
TGI (MDA-N): 5.45 µM
TGI (MOLT-4 leukemia): > 100 µM
TGI (NCI-H226 lung): > 100 µM
TGI (NCI-H23 lung): 57 µM
GI50 (NCI-H460 lung): 4.12 µM
TGI (NCI-H460 lung): > 100 µM
TGI (NCI-H522 lung): 36.8 µM
TGI (NCI/ADR-RES ovarian): > 100 µM
GI50 (OVCAR-3 ovarian): 2.65 µM
TGI (OVCAR-3 ovarian): 7.81 µM
TGI (OVCAR-4 ovarian): > 100 µM
TGI (OVCAR-5 ovarian): > 100 µM
TGI (OVCAR-8 ovarian): 22.9 µM
GI50 (PC-3 prostate): 3.1 µM
TGI (PC-3 prostate): 29.1 µM
TGI (RPMI-8226 leukemia): 24.5 µM
TGI (SF-268 CNS): 34.4 µM
GI50 (SF-295 CNS): 5.44 µM
TGI (SF-295 CNS): 29 µM
TGI (SF-539 CNS): 56.5 µM
TGI (SK-MEL-2 melanoma): 45.1 µM
TGI (SK-MEL-28 melanoma): > 100 µM
GI50 (SK-MEL-5 melanoma): 2.98 µM
TGI (SK-MEL-5 melanoma): > 100 µM
TGI (SK-OV-3 ovarian): 34.4 µM
TGI (SN12C renal): > 100 µM
TGI (SNB-19 CNS): 51.2 µM
TGI (SNB-75 CNS): 9.96 µM
TGI (SW-620 colon): > 100 µM
TGI (T-47D breast): > 100 µM
TGI (TK-10 renal): 45.6 µM
GI50 (U251 CNS): 4.74 µM
TGI (U251 CNS): 46.1 µM
TGI (UACC-257 melanoma): > 100 µM
TGI (UACC-62 melanoma): > 100 µM
TGI (UO-31 renal): > 100 µM
